Experiments:
tumor cell lines = assay: Tumor cell proliferation, oxygen biosensor; assay type: cell-based; conditions: DMSO, ethanol and PBS extracts; FIGS. 6, 7, 8
Experimental: The following cell lines were utilized in the tests listed above: • Leukemia/Lymphoma: K562, Raji, Jurkatt, CEM; • Breast Carcinoma MCF-7, MDA-MB-231, MD-MB-468; • Prostate Carcinoma LNCaP, PC-3; • Colorectal Carcinoma: HT-29, HCT-116; • Pancreatic Carcinoma: PANC-1; • Gliobastaoma: GL10-1.
The DMSO and ETHANOL extract was prepared by the following process: • 4 g of powder was extracted with each • the extract was evaporated utilizing a speed vacuum centrifuge • when dried the extract was re-suspended in fresh solution at 1 g/ml. • the concentration of extract used ranges from 0.1 to 100 mg/ml
The PBS solution was prepared as follows: • dissolve 1 g/ml of powder within PBS solution • the concentration of extract used ranges from 0.1 to 100 mg/ml
Referring to FIGS. 6, 7, and 8 the effect of snake extract on tumor cell proliferation utilizing the DMSO, ethanol, and PBS solutions, is respectively analyzed. The methodology used to analyze tumor cell proliferation was oxygen biosensor. With this methodology culture plates are coated with an oxygen sensitive fluorescent compound embedded in a gas-permeable and hydrophobic matrix permanently attached to the bottom of a multi-well plate. The amount of fluorescence correlates directly to the rate of oxygen consumption in the well, providing a signal that can be directly correlated to cell growth.

Artemia salina nauplii = assay: Brine shrimp lethality assay; assay type: in vivo; conditions: 24 h, 27-28° C., triplicate
Experimental: The eggs of brine shrimp, Airtime salina (Leach), are used in monitoring bioactive compounds. The eggs are readily available in pet shops at low cost and remain viable for years in the dry state. The brine shrimp assay has advantages of being rapid (24 hrs), inexpensive, and simple. No aseptic techniques are required. It easily utilizes a large number of organisms for statistical validation and requires no special equipment and a relatively small amount of sample.
The assay was carried out with Artemia salina eggs. 50 mg of Artemia salina eggs in a beaker containing sea salt (6 g), yeast (0.9 mg) and distilled water (150 ml) were incubated at 27-28° C. for 24 hrs. The newly hatched nauplii were concentrated. From this volume, aliquots of 50 μl (approximately 18-20 nauplii) were pipette directly into a 24 well plates containing sea water (sw), −ve control (DMSO+sw), +ve control (emetine) or different concentrations of extracts (62.5-500 μg/ml). Assay was carried out in triplicate. The plates were sealed and incubated at 27-28° C. for 24 h. At the end of the 24-h incubation period, the content of each well was pipette into a watch glass individually. Survival was assessed by scoring the number of dead nauplii using a microscope. Once counts of dead nauplii had been taken, 0.5 ml of methanol was added to kill all remaining nauplii. The contents of each well were then recorded and result tabulated as (X/Y; where X number dead and Y=number of dead and alive).

MDA-MB-435 tumor masses = conditions: cited from earlier work
breast cancer cells = conditions: cited from earlier work
B16F10 solid tumor = conditions: C57BU6 mice; cited from earlier work
angiogenesis = conditions: elicited by basic fibroblast growth factor; cited from earlier work

In the case of `CC[C@@]1(O)C(=O)OCc2c1cc1n(c2=O)Cc2cc3ccccc3nc2-1` [Camptothecin], the “inhibition of tumor cell proliferation” value (tumor cell lines) was “more effective at inhibiting cell proliferation of different cell lines than the snake powder extract”.

`CC[C@H]1CN2CCc3cc(OC)c(OC)cc3[C@@H]2C[C@@H]1C[C@H]1NCCc2cc(OC)c(OC)cc21` [Emetine] gave a mortality at 62.5 µg/mL (Artemia salina nauplii; 62.5 μg/ml) of 58.2%, a mortality at 125 µg/mL (Artemia salina nauplii; 125 μg/ml) of 100% and a mortality at 250 µg/mL (Artemia salina nauplii; 250 μg/ml) of 100%. For the same molecule, the mortality at 500 µg/mL (Artemia salina nauplii; 500 μg/ml) was 100%.

In the case of Contortrostatin, the “angiogenesis induced by breast cancer” value (MDA-MB-435 tumor masses; immunohistochemical quantitation of vascular endothelial cells in tumor tissue) is given as “inhibiting angiogenesis induced by breast cancer”, the “inhibition of tumor growth” value (MDA-MB-435 tumor masses; injected daily at 5 microgram per mouse to tumor masses) is given as 74% and the “cytotoxicity to cancer cells” value (breast cancer cells) is given as “not cytotoxic to cancer cells”. For the same molecule, the “proliferation of the breast cancer cells” value (breast cancer cells; in vitro) was “does not inhibit proliferation”.

In the case of Rhodostomin, the survival (B16F10 solid tumor) is listed as “prolonged survival”, the tumor growth (B16F10 solid tumor) is listed as “suppressed tumor growth” and the angiogenesis (angiogenesis) is listed as “inhibit angiogenesis”.

From patent US20060240117A1, “Snake powder extract for treatment of cancer” (priority 2002, published 2006)
